According to article PMC6286256 (Cancer chemotherapy and pharmacology, 2018):

Legend:
solid tumors = conditions: cited from earlier work
[1] = system: patients with advanced solid tumors; conditions: single-agent BEZ235, oral once daily, continuous 28-day cycles
PI3K/mTOR = conditions: cellular assays; cited from earlier work
advanced solid tumors = assay: Best overall response, all patients; type: in vivo, human; conditions: single agent and combination
[2] = system: patients with advanced solid tumors; assay: Safety and tolerability; type: in vivo, human; conditions: single-agent SDS sachet cohort, all doses, 61 patients
[3] = human, in vivo
mTOR = conditions: cellular assays; cited from earlier work

Structure (SMILES)	Incidence of stomatitis (solid tumors)	MTD [1]	concentration at which dual PI3K/mTOR blockade is observed (PI3K/mTOR)	Patients with PR as best overall response (advanced solid tumors; 5 patients)	Patients with SD as best overall response (advanced solid tumors; 62 patients)	Diarrhea, frequency [2]	Nausea, frequency [2]	Vomiting, frequency [2]	Bioavailability [3]	concentration at which mTOR inhibition predominates (mTOR)
CO[C@H]1C[C@@H]2CC[C@@H](C)[C@@](O)(O2)C(=O)C(=O)N2CCCC[C@H]2C(=O)O[C@H]([C@H](C)C[C@@H]2CC[C@@H](OCCO)[C@H](OC)C2)CC(=O)[C@H](C)/C=C(\C)[C@@H](O)[C@@H](OC)C(=O)[C@H](C)C[C@H](C)/C=C/C=C/C=C/1C [everolimus]	59–71%	–	–	–	–	–	–	–	–	–
Cn1c(=O)n(-c2ccc(C(C)(C)C#N)cc2)c2c3cc(-c4cnc5ccccc5c4)ccc3ncc21 [BEZ235]	–	1200 mg/day	≈ 500 nmol/L	2.7%	33.9%	75.4%	80.3%	63.9%	low bioavailability	< 100 nmol/L
